We go through one molecule from patent US20120100189A1 (Teva Pharmaceutical Industries Ltd., priority 2009, published 2012).

For the data set the following is noted: non-polar organic solvents such as hexane toluene and ethylacetate.

On to `C#CCN[C@@H]1CCc2ccccc21` [Rasagiline base], for which the “solubility in non-polar organic solvents” value is “very soluble”.
